The conditions of series [1]: liver microsome, rat; cited from earlier work. (In general: Liver microsomes are a subcellular fraction often used to study metabolism.)
The conditions of series [2]: hepatocyte, rat; cited from earlier work.
For series [3] the following is noted: hepatocyte, monkey; cited from earlier work.
For series [4] the following is noted: liver microsome, dog; cited from earlier work.
For series [5] the following is noted: hepatocyte, dog; cited from earlier work.
Series [6] can be described thus: Metabolite identification after 120 min incubation in human hepatocytes (LC-UV-MSn). It counts as in vitro ADME. The conditions noted are these: human hepatocytes, 10 μM, 120 min. The protocol: The purpose of this experiment was to confirm the metabolites of a series of compounds after incubation for 120 minutes in human hepatocytes using LC-UV-MS^n (n=1-2) detection. MS and MS^2 data were analyzed using MetaboLynx™ software after data collection.
Alter incubating the sample for 2 h, the protein was precipitated by using acetonitrile containing 01.% formic acid, centrifuged, and the supernatant was taken out and dried an under nitrogen, and dissolved and then injected for analysis.

The conditions of series [7]: liver microsome, human; cited from earlier work.
For series [8] the following is noted: liver microsome, monkey; cited from earlier work.
A short description of series [9]: Pharmacokinetics in SD rats after IV and PO administration. It counts as in vivo. The conditions noted are these: rat. The protocol: Drug concentrations in plasma of (−)-WX001 and (+)-WX002 were measured by LC/MS/MS method at different times after SD rats as tested animals were administered (−)-WX001 and (+)-WX002 by IV (intravenous injection) and PO (gavage), and the pharmacokinetic behavior of the compound in the present invention in rats was investigated, and its pharmacokinetic characteristics were evaluated.
12 healthy adult male SD rats were divided into 4 groups (each compound contained IV and PO group), 3 rats per group. SD rats were purchased from Shanghai Slac Laboratory Animal CO.LTD, whose animal production license number was SCXK (Shanghai) 2012-0002.
The appropriate amount of the sample was weighed, added a certain amount of DMSO and ultrasonic dissolved, and then was added 20% hydroxypropyl-β-cyclodextrin solution to give tested compound which was 1 mg/mL 5% DMSO/95% 20% HPCD clear solution used for IV and PO administration.
12 SD rats were divided into 4 groups and there were 3 male rats in each group, and administrated by IV, PO, respectively after fasting overnight. The dose of IV was 2 mg/kg and administration volume was 2 mL/kg; the dose of PO was 10 mg/kg and administration volume was 10 mL/kg.
In group of IV, about 200 μL of blood was collected at 0.083, 0.25, 0.5, 1, 2, 4, 6, 8, 24 hour after administration, placed in an anticoagulant tube of K2-EDTA, centrifuged at 3000 rpm for 15 minutes, and then plasma was separated and stored at −80° C. In group of PO, blood was collected at 0.25, 0.5, 1, 2, 4, 6, 8, 24 hour after administration, and the other operations were the same as the group of IV. The plasma samples were pretreated through precipitated protein and the plasma concentration was determined by LC/MS/MS method. A linear range of the analytical method was 4.00-6000 nM.

For series [10] the following is noted: human, 0-144 h, after Lesinurad, cited from earlier work.
The conditions of series [11]: hepatocyte, human; cited from earlier work.

Where two headings read alike, the source gives them in different places.

What is called bioavailability is the share of a dose that reaches the circulation, judged against a reference dose that is usually intravenous.

Regarding `O=C(O)CSc1nnc(Br)n1-c1ccc(C2CC2)c2ccccc12` (racemic) [(±)-Lesinurad, Lesinurad, reference compound], the “amount of metabolite / parent found (Total 100)” value in series [1] was 100; in [2], 100; in series [3], 98.1; in series [4], 100; in series [5] it was 100; in series [7], 100. Besides, the “amount of metabolite / parent found (Total 100)” value in series [8] and in series [11] was 92.1 throughout. Besides, the “Percentage of ultraviolet area” value in [6] is 95.60%. Also, the bioavailability in series [9] (male, SD, plasma, po, 10 mg/kg, PO 10 mpk, read-out: Bioavailability F) came to 84%. The “Area under curve AUC0-inf” value in series [9] (IV 2 mpk) was 14.823 µM·h; in series [9] (PO 10 mpk), 62.491 µM·h. Moreover, the C0 in series [9] (IV 2 mpk, read-out: Starting concentration C0) is 11.6 µM. In series [9] (PO 10 mpk, read-out: Peak concentration Cmax), the Cmax was found to be 14.5 µM. For the same compound, the “Percentage of administered dose” value in [10] (Feces) is reported as 1.5%; in series [10] (Urine) it was 31.3%.

The record behind these values is patent US10633351B2, “Halogenated compound and axially chiral isomer thereof” (MEDSHINE DISCOVERY INC., priority 2016, dated 2020).
